This note sets out measurements from ChEMBL document CHEMBL5325486, “Synthesis of novobiocin derivatives and evaluation of their antigonococcal activity and pharmacokinetics” (Bioorg Med Chem, 2023).

Structures are written as SMILES. Converted amounts (≈) assume the structure as drawn.

Data set [1] can be described thus: Aqueous solubility of compound in neutral JP2 solution. Format: physicochemical. The note with it: JP2 solution; read-out: solubility.
Data set [2] can be described thus: Effective permeability of compound by PAMPA assay. It counts as ADME. The note with it: read-out: Peff.
The nature of data set [3]: Metabolic stability in mouse liver microsomes assessed as residual rate. Format: ADME, Microsome. (Liver microsomes are vesicles of endoplasmic reticulum, rich in cytochrome P450 enzymes.)
Data set [4] relates to Staphylococcus aureus. Kind of data set: Antibacterial activity against Staphylococcus aureus assessed inhibition of bacterial growth. It counts as functional.
The subject of data set [5] is Neisseria gonorrhoeae. Kind of data set: Antibacterial activity against Neisseria gonorrhoeae clinical isolate assessed inhibition of bacterial growth. It counts as functional.
In data set [6] the test system is Neisseria gonorrhoeae. Nature of the data set: Antibacterial activity against resistant Neisseria gonorrhoeae assessed inhibition of bacterial growth. Format: functional.
Data set [7] can be described thus: Aqueous solubility of compound in acidic JP1 solution. The settings on record: JP1 solution; read-out: solubility. It counts as physicochemical.
For data set [8], the system named is Neisseria gonorrhoeae. Nature of the data set: Antibacterial activity against azithromycin resistant Neisseria gonorrhoeae assessed inhibition of bacterial growth. Format: functional.
Data set [9] concerns Neisseria gonorrhoeae. Nature of the data set: Antibacterial activity against ceftriaxone intermediate resistant Neisseria gonorrhoeae assessed inhibition of bacterial growth. Format: functional.

What is called solubility is the concentration that dissolves in the medium under given conditions. The MIC50 is the lowest concentration that inhibits either 50% of growth or 50% of the strains tested, depending on the study. Low values mean higher susceptibility, high ones lower susceptibility. For orientation: MIC90 means the lowest concentration that inhibits either 90% of growth or 90% of the strains tested, depending on the study. A high value points to lower susceptibility. As for `CO[C@@H]1[C@@H](OC(=O)c2ccc(C)[nH]2)[C@@H](O)[C@H](Oc2ccc3c(O)c(NC(=O)c4ccc(C)c(C)c4)c(=O)oc3c2C)OC1(C)C`, the solubility is 79.1 µM (≈ 49.1 µg/mL) in [1] and below 1 µM in data set [7]. In addition, the Papp in data set [2] was 18 ×10⁻⁶ cm/s. Also, the Stability in data set [3] turned out to be 80.8%. Further, the MIC50 in data set [4] is 0.016 µg/mL (≈ 0.0258 µM); in data set [6], 0.125 µg/mL (≈ 0.201 µM). The MIC90 in [4] worked out at 0.016 µg/mL (≈ 0.0258 µM); in [5], 0.25 µg/mL (≈ 0.403 µM); in [6], 0.125 µg/mL (≈ 0.201 µM).

By MIC is commonly meant the lowest concentration that inhibits growth of the organism. Low readings indicate greater potency, high ones weaker potency. On to `CO[C@@H]1[C@@H](OC(=O)c2ccc(C)[nH]2)[C@@H](O)[C@H](Oc2ccc3c(O)c(NC(=O)c4ccc(O)c(CC=C(C)C)c4)c(=O)oc3c2C)OC1(C)C`, for which the values for the solubility in data set [1] and in data set [7] were 69.2 µM (≈ 46.8 µg/mL) and below 1 µM, respectively. Further, the MIC in data set [8] is 0.008 µg/mL (≈ 0.0118 µM); in [9], 0.063 µg/mL (≈ 0.0931 µM). Further, the Papp in data set [2] is 10.3 ×10⁻⁶ cm/s. In addition, in [3], the Stability worked out at 92.7%. Moreover, the MIC50 in data set [4] stood at 0.008 µg/mL (≈ 0.0118 µM); in data set [6], 0.063 µg/mL (≈ 0.0931 µM). The figures for the MIC90 in [4], in [5] and in data set [6] were 0.08 µg/mL (≈ 0.118 µM), 0.063 µg/mL (≈ 0.0931 µM) and 0.125 µg/mL (≈ 0.185 µM), respectively.

`C#CCONC(=O)O[C@H]1[C@@H](O)[C@H](Oc2ccc3c(O)c(NC(=O)c4ccc(O)c(CC=C(C)C)c4)c(=O)oc3c2C)OC(C)(C)[C@@H]1OC`: the solubility in data set [1] was 69.3 µM (≈ 46.2 µg/mL); in data set [7], below 1 µM. The Papp in data set [2] worked out at 1.14 ×10⁻⁶ cm/s. In addition, the Stability in [3] is 47.2%. The figures for the MIC50 in data set [4] and in [6] were 0.063 µg/mL (≈ 0.0945 µM) and 0.25 µg/mL (≈ 0.375 µM), respectively. For the same molecule, the figures for the MIC90 in [4], in data set [5] and in data set [6] were 0.063 µg/mL (≈ 0.0945 µM), 0.125 µg/mL (≈ 0.187 µM) and 0.5 µg/mL (≈ 0.75 µM), respectively.
